Source: patent US20240343717A1, “MICROBIOCIDAL PYRAZOLE DERIVATIVES” (SYNGENTA CROP PROTECTION AG, priority 2021, published 2024)

How the values were obtained:
Alternaria solani = Alternaria solani / tomato / leaf disc (early blight); type: in vivo; conditions: foliar, tomato leaf disks, sprayed 2 days before inoculation, compared to untreated control
Protocol: Example B1: Alternaria solani/Tomato/Leaf Disc (Early Blight) Tomato leaf disks cv. Baby are placed on agar in multiwell plates (24-well format) and sprayed with the formulated test compound diluted in water. The leaf disks are inoculated with a spore suspension of the fungus 2 days after application. The inoculated leaf disks are incubated at 23° C./21° C.

[1] = tested on: Botryotinia fuckeliana (Botrytis cinerea); assay: Botryotinia fuckeliana (Botrytis cinerea) / liquid culture (gray mould); type: cell-based; conditions: growth inhibition photometrically 3-4 days after application, read-out: control of Botryotinia fuckeliana
How it was run: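 Conidia suspended in Vogels broth and added to compound dispensed from DMSO. Incubated at 24°C, with growth inhibition measured photometrically 3–4 days later.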

[2] = tested on: Glomerella lagenarium (Colletotrichum lagenarium); assay: Glomerella lagenarium (Colletotrichum lagenarium) / liquid culture (anthracnose); type: cell-based; conditions: Colletotrichum orbiculare, growth inhibition photometrically 3-4 days after application, read-out: control of Glomerella lagenarium
How it was run: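 Cryo-stored conidia in potato dextrose broth were added to test compound in DMSO. Plates were incubated at 24° C, and growth inhibition was read photometrically 3-4 days after application.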

[3] = tested on: Blumeria graminis f. sp. tritici (Erysiphe graminis f. sp. tritici); assay: Blumeria graminis f. sp. tritici / wheat / leaf disc preventative (powdery mildew on wheat); type: in vivo; conditions: foliar, wheat leaf segments, inoculated 1 day after application
How it was run: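 Wheat cv. Kanzler leaf segments on agar sprayed with formulated compound in water, inoculated 1 day later by shaking mildew-infected plants overhead. Incubated at 20° C, 60% rh, 24 h dark then 12 h light/12 h dark. Percent disease control versus untreated scored 6-8 days after application.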

Fusarium culmorum [4] = assay: microbe, parasite or virus in culture; type: cell-based; conditions: read-out: control of Fusarium culmorum
[5] = tested on: Gibberella zeae (Fusarium graminearum); assay: whole plant or invertebrate; type: in vivo; conditions: in Triticum aestivum, read-out: control of Gibberella zeae
[6] = tested on: Phaeosphaeria nodorum (Septoria nodorum); assay: Phaeosphaeria nodorum (Septoria nodorum) / wheat / leaf disc preventative (glume blotch); type: in vivo; conditions: Parastagonospora nodorum, foliar, wheat leaf segments, inoculated 2 days after application
Protocol: Example B8: Phaeosphaeria nodorum (Septoria nodorum)/Wheat/Leaf Disc Preventative (Glume Blotch) Wheat leaf segments cv. Kanzler are placed on agar in a multiwell plate (24-well format) and sprayed with the formulated test compound diluted in water. The leaf disks are inoculated with a spore suspension of the fungus 2 days after application. The inoculated test leaf disks are incubated at 20° C. and 75% rh under a light regime of 12 h light/12 h darkness in a climate cabinet and the activity of a compound is assessed as percent disease control compared to untreated when an appropriate level of disease damage appears in untreated check leaf disks (5-7 days after application).

[7] = tested on: Monographella nivalis (Microdochium nivale); assay: Monographella nivalis (Microdochium nivale) / liquid culture (foot rot cereals); type: cell-based; conditions: growth inhibition photometrically 4-5 days after application, read-out: control of Monographella nivalis
How it was run: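 Fungal conidia mixed directly into potato dextrose broth and added to test compound delivered in DMSO. Incubated at 24° C; growth inhibition read photometrically 4-5 days after application.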

[8] = tested on: Mycosphaerella arachidis (Cercospora arachidicola); assay: Mycosphaerella arachidis (Cercospora arachidicola) / liquid culture (early leaf spot); type: cell-based; conditions: growth inhibition photometrically 4-5 days after application, read-out: control of Mycosphaerella arachidis
How it was run: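 Spores taken straight from cryostorage are suspended in potato dextrose broth and added to test compound in DMSO. Plates are incubated at 24° C. Growth inhibition is scored photometrically 4-5 days after application.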

Pyrenophora teres = Pyrenophora teres / barley / leaf disc preventative (net blotch); type: in vivo; conditions: foliar, barley leaf segments, inoculated 2 days after application
How it was run: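 Barley cv. Hasso leaf segments on agar sprayed with formulated compound, inoculated with spores 2 days later. Incubated at 20 °C, 65% rh, 12 h light/dark; disease control versus untreated assessed 5–7 days after application.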

Sclerotinia sclerotiorum = Sclerotinia sclerotiorum / liquid culture (cottony rot); type: cell-based; conditions: growth inhibition photometrically 3-4 days after application, read-out: control of Sclerotinia sclerotiorum
Protocol: Example B15: Sclerotinia sclerotiorum/Liquid Culture (Cottony Rot) Mycelia fragments of a newly grown liquid culture of the fungus are directly mixed into nutrient broth (PDB potato dextrose broth). After placing a (DMSO) solution of test compound into a microtiter plate (96-well format) the nutrient broth containing the fungal material is added. The test plates are incubated at 24° C. and the inhibition of growth is determined photometrically 3-4 days after application.

[9] = tested on: Mycosphaerella graminicola (Septoria tritici); assay: Mycosphaerella graminicola (Septoria tritici) / liquid culture (Septoria blotch); type: cell-based; conditions: Zymoseptoria tritici, growth inhibition photometrically 4-5 days after application, read-out: control of Mycosphaerella graminicola
How it was run: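 Conidia suspended in potato dextrose broth and added to test compound supplied in DMSO in 96-well plates. Incubated at 24 °C, and growth inhibition read photometrically 4-5 days after application.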

Fusarium culmorum [10] = assay: whole plant or invertebrate; type: in vivo; conditions: in Triticum aestivum, read-out: control of Fusarium culmorum

Structure (SMILES) | pest or weed control at 200 ppm (Alternaria solani) [%] | inhibition of growth at 20 ppm [1] [%] | inhibition of growth at 20 ppm [2] [%] | pest or weed control at 200 ppm [3] [%] | inhibition of growth at 20 ppm (Fusarium culmorum [4]) [%] | pest or weed control at 200 ppm [5] [%] | pest or weed control at 200 ppm [6] [%] | inhibition of growth at 20 ppm [7] [%] | inhibition of growth at 20 ppm [8] [%] | pest or weed control at 200 ppm (Pyrenophora teres) [%] | inhibition of growth at 20 ppm (Sclerotinia sclerotiorum) [%] | inhibition of growth at 20 ppm [9] [%] | melting point [°C] | pest or weed control at 200 ppm (Fusarium culmorum [10]) [%]
Cn1cc(C(C)(CNC(=O)c2nnc(-c3ccc(F)cc3F)s2)c2cccc(Cl)n2)cn1 (stereo not drawn) [Compound P-9, N-[2-(6-chloro-2-pyridyl)-2-(1-methylpyrazol-4-yl)propyl]-5-(2,4-difluorophenyl)-1,3,4-thiadiazole-2-carboxamide] | ≥ 80 | ≥ 80 | ≥ 80 | ≥ 80 | ≥ 80 | ≥ 80 | ≥ 80 | ≥ 80 | ≥ 80 | ≥ 80 | ≥ 80 | ≥ 80 |  | 
Cn1cc(C(C)(CNC(=O)c2cc(-c3ccc(F)cc3F)on2)c2cccc(Br)n2)cn1 (stereo not drawn) [Compound P-24, N-[2-(6-bromo-2-pyridyl)-2-(1-methylpyrazol-4-yl)propyl]-5-(2,4-difluorophenyl) isoxazole-3-carboxamide] | ≥ 80 | ≥ 80 | ≥ 80 | ≥ 80 | ≥ 80 | ≥ 80 | ≥ 80 | ≥ 80 | ≥ 80 | ≥ 80 | ≥ 80 | ≥ 80 | 141 to 143 | 
Cn1cc([C@@](C)(CNC(=O)c2cc(-c3ccc(F)cc3F)on2)c2cccc(Cl)n2)cn1 [Compound P-29, N-[(2S)-2-(6-chloro-2-pyridyl)-2-(1-methylpyrazol-4-yl)propyl]-5-(2,4-difluorophenyl) isoxazole-3-carboxamide] | ≥ 80 | ≥ 80 | ≥ 80 | ≥ 80 | ≥ 80 |  | ≥ 80 | ≥ 80 | ≥ 80 | ≥ 80 | ≥ 80 | ≥ 80 |  | ≥ 80
Cn1cc([C@@](C)(CNC(=O)c2cc(-c3ccc(F)cc3F)on2)c2cccc(Cl)n2)cn1 [Compound P-30, N-[(2S)-2-(6-chloro-2-pyridyl)-2-(1-methylpyrazol-4-yl)propyl]-5-(2,4-difluorophenyl) isoxazole-3-carboxamide] |  |  |  |  |  | ≥ 80 |  |  |  |  |  |  |  | 
Cn1ncc(C(CNC(=O)c2cc(-c3ccc(F)cc3F)on2)c2cccc(Cl)n2)c1Cl (stereo not drawn) [Compound P-69, N-[2-(5-chloro-1-methyl-pyrazol-4-yl)-2-(6-chloro-2-pyridyl)ethyl]-5-(2,4-difluorophenyl) isoxazole-3-carboxamide] |  | ≥ 80 | ≥ 80 | ≥ 80 |  |  | ≥ 80 | ≥ 80 | ≥ 80 | ≥ 80 |  | ≥ 80 | 113 to 115 | 
Cn1cc(C(C)(CNC(=O)c2cc(C3CCCC3)on2)c2cccc(Cl)n2)cn1 (stereo not drawn) [Compound P-80, N-[2-(6-chloro-2-pyridyl)-2-(1-methylpyrazol-4-yl)propyl]-5-cyclopentyl-isoxazole-3-carboxamide] | ≥ 80 | ≥ 80 | ≥ 80 |  | ≥ 80 | ≥ 80 |  | ≥ 80 | ≥ 80 | ≥ 80 |  | ≥ 80 |  | 
Cc1cccc(C(C)(CNC(=O)c2nnc(-c3ccc(F)cc3F)s2)c2cnn(C)c2Cl)n1 (stereo not drawn) [Compound P-82, N-[2-(5-chloro-1-methyl-pyrazol-4-yl)-2-(6-methyl-2-pyridyl)propyl]-5-(2,4-difluorophenyl)-1,3,4-thiadiazole-2-carboxamide] | ≥ 80 | ≥ 80 | ≥ 80 | ≥ 80 | ≥ 80 | ≥ 80 | ≥ 80 | ≥ 80 | ≥ 80 | ≥ 80 | ≥ 80 | ≥ 80 |  | 
Cn1cc(C(C)(CNC(=O)c2cc(-c3ccc(F)cc3F)on2)c2cccc(C(F)(F)F)n2)cn1 (stereo not drawn) [Compound P-106, 5-(2,4-difluorophenyl)-N-[2-(1-methylpyrazol-4-yl)-2-[6-(trifluoromethyl)-2-pyridyl]propyl] isoxazole-3-carboxamide] | ≥ 80 | ≥ 80 | ≥ 80 |  | ≥ 80 |  |  | ≥ 80 | ≥ 80 |  | ≥ 80 | ≥ 80 | 160 to 165 | 
Cn1cc(C(C)(CNC(=O)c2nnc(-c3ccc(F)cc3F)s2)c2cccc(C(F)(F)F)n2)cn1 (stereo not drawn) [Compound P-107, 5-(2,4-difluorophenyl)-N-[2-(1-methylpyrazol-4-yl)-2-[6-(trifluoromethyl)-2-pyridyl]propyl]-1,3,4-thiadiazole-2-carboxamide] | ≥ 80 | ≥ 80 | ≥ 80 | ≥ 80 | ≥ 80 |  |  | ≥ 80 | ≥ 80 | ≥ 80 | ≥ 80 | ≥ 80 | 162 to 163 | 
Cn1cc(C(C)(CNC(=O)c2nnc(-c3ccc(F)cc3F)s2)c2cccc(C#N)n2)cn1 (stereo not drawn) [Compound P-115, N-[2-(6-cyano-2-pyridyl)-2-(1-methylpyrazol-4-yl)propyl]-5-(2,4-difluorophenyl)-1,3,4-thiadiazole-2-carboxamide] |  | ≥ 80 | ≥ 80 |  | ≥ 80 |  |  | ≥ 80 | ≥ 80 |  |  | ≥ 80 | 169 to 170 | 
Cn1ncc(C(CNC(=O)c2nnc(-c3ccc(F)cc3F)s2)c2cccc(Cl)n2)c1Cl (stereo not drawn) [Compound P-116, N-[2-(5-chloro-1-methyl-pyrazol-4-yl)-2-(6-chloro-2-pyridyl)ethyl]-5-(2,4-difluorophenyl)-1,3,4-thiadiazole-2-carboxamide] |  | ≥ 80 | ≥ 80 |  | ≥ 80 |  |  | ≥ 80 | ≥ 80 |  |  | ≥ 80 | 150 to 151 | 
